Laboratory results taken from EP4361137A1, “PRUNE1 INHIBITORS AND THERAPEUTIC USE THEREOF” (CEINGE Biotecnologie Avanzate Franco Salvatore s.c. a r.l., priority 2022, dated 2024).
Where “and” joins values, the source holds several entries; their conditions need not be identical. Equal values may be shown once. Entries after “also recorded” stand apart in the source; their conditions may differ.

Key:
D425-MED cells [1] = assay: Real-time cell proliferation assay (cell index, xCELLigence); type: cell-based, human; conditions: combination with Vincristine
Procedure: J774A.1 murine macrophages (referred to as J774 cells; ATCC: #TIB-67), MMTV-Prune1-Wnt1 cells were grown in high-glucose Dulbecco's modified Eagle's medium (DMEM; Euroclone) supplemented with 20% (v/v) FBS, 2 mM L-glutamine, and 1% (v/v) antibiotics (Pen/Strep). D425-MED, D425-MED-Luc and […] cells were grown in high-glucose Dulbecco's modified Eagle's medium (DMEM; Euroclone) and Iscove's Modified Dulbecco's Medium (IMDM; Sigma) at 1:1 (v/v) dilution supplemented with 20% (v/v) FBS, 2 mM L-glutamine, 1% non-essential amino acid solution (M7145; Sigma-Aldrich/Merck), and 1% (v/v) antibiotics (Pen/Strep). The cells were grown at 37 °C in a humidified atmosphere of 95% air, 5% CO2 (v/v).
D425.MED and MMTV-Prune1/Wnt1 cells were plated and treated with increasing concentrations of LEO-AA7.5(S)T for 24 hours. Water-treated cells were used as negative control for the experiments.
(§1) Cellular proliferation rates were determined with the xCELLigence system (Roche). D425-MED, MATH-Prune1/TP53-/- and MMTV-Prune1/Wnt1 cells (8 × 10^3) were treated with increasing concentrations of LEO-AA7.5(S)T, harvested, and then added to a single well of an xCELLigence E-plate 16. The proliferation rates were determined at 2-min intervals by measuring the impedance changes across the electrodes at the bottoms of the wells. These cell index values were calculated by the xCELLigence RTCA software. with vehicle-treated cells were the negative control. Impedance was measured every 2 min over 24 hours. The IC50 values were calculated through nonlinear regression analysis performed with Graph Pad Prism 9 ([inhibitor] vs. response (three parameters). Data are means ± SD of three independent experiments.

MATH1-Prune1/ TP53-/- = assay: Orthotopic implantation of MATH1-Prune1/TP53-/- cells in immunocompetent syngeneic mice, tumor growth; type: in vivo, FVB WT mice; conditions: AA7.1 at 30 mg/kg/day or 60 mg/kg/day intraperitoneally
Procedure: MATH1-Prune1/ TP53-/- were implanted into the right cerebellar hemisphere of female (n.10) immunocompetent syngeneic mice model (5 weeks old, strain: FVB WT) to establish intracerebellar MATH1-Prune1/ TP53-/- models. Mice were anaesthetised with Ketamine/ Xylazine (87.5 mg/kg, 12.5 mg/kg, respectively). The mice were then placed in a stereotactic frame by hooking their incisors onto the frame hold. A small skin incision (length, 1 mm) and a burr hole (diameter, 0.7 mm) were created using a microsurgical drill (Fine Science Tools, Foster City, CA, USA of MATH1-Prune1/ TP53-/- (1.5 ×10^5) were resuspended in 10 µL PBS and injected slowly through the burr hole into the right cerebellar hemisphere (stereotactic coordinates from Bregma: anteroposterior, 5.5 mm; right lateral, 2.1 mm; dorsoventral 5.0 mm), with a steady force over 30 s, using a 10-AL, 26-gauge Hamilton Gastight model 1701RN syringe needle (SigmaAldrich) that was inserted perpendicular to the cranial surface. The incision was sutured using Safil polyglycolic acid synthetic absorbable suture (6/0). The mice were kept on a warming blanket after the surgery, to help them to maintain their body temperature. Their mobility and respiratory patterns were observed continuously, and once the mice had recovered from the anaesthesia; they were place in a sterile housing cage. The mice were monitored daily for development of potential neurological deficits. 10 days after the implantation of the cells, the mice were imaged, and tumour growth was evaluated by bioluminescence acquisition using an imaging system (IVIS 3D Illumina; Xenogen/ Caliper). For the acquisitions, the mice were anaesthetised by inhalational of isoflurane, and the D-luciferin (122799; PerkinElmer) (15 mg/mL stock) was injected intraperitoneally (100 µL per 10 g body weight). At 5 min from the luciferin injection, the mice were imaged for 3 min. To quantify the bioluminescence, the integrated fluxes of photons (p/s) within each area of interest were determined using the Living Images Software Package 3.2 (Xenogen-Perkin Elmer). […] After 17 days from tumour implantation (i.e., after one weeks of LEO-AA7.5(S)T treatment), the mice were sacrificed, and the organs were collected for immunohistochemistry and immunofluorescence analyses.
Paraffin sections of the tumor specimens (thickness, 3 µm) were deparaffinised and rehydrated by immersing the slides in Xylene Substitute (A5597; Sigma), as three washes for 5 min each, then serially in 100%, 95%, 70%, 50%, and 30% ethanol (two washes for 10 min, for each), and deionised water (two washes, for 5 min each). The washes were then followed by PBS, PBS containing 0.02% Triton-X 100 (215680010; Acros Organics), and PBS (two washes for 5 min, for each). For antigen retrieval, the slides were immersed in boiling 10 mM sodium citrate buffer (pH 6.0) using a microwave oven, and then maintained at sub-boiling temperature for 10 min. The slides were left to cool at room temperature for 30 min. The sections were then washed by immersion in distilled water for 5 min. To block endogenous peroxidase activity, the tissue sections were placed in a solution with 3.0% hydrogen peroxide in methanol for 15 min. Then, to decrease the nonspecific background fluorescence, the tissues were digested by treating them with a solution containing 0.2% trypsin (T2600000; Sigma-Aldrich) and 0.001% CaCl2 for 10 min at 37 °C, in a humidified chamber. The slides were then washed in PBS, PBS containing 0.02% Triton-X 100 (215680010; Acros Organics), and PBS (two washes for 5 min, for each). The tissue sections were blocked with 6% bovine serum albumin (A9418; Sigma), 5% fetal bovine serum (ECS0180L; Euroclone), and 20 mM MgCl2 in PBS containing 0.02% Triton-X 100, for 1 h at room temperature, and incubated overnight with the primary antibodies at 4 °C in a humidified chamber. […]

D425-MED cells [2] = conditions: Ferrucci et al., 2018, read-out: IC50 reported for AA7.1 in the same D425-Med cells; cited from earlier work
[3] = 15, 30, and 60 mg/kg intraperitoneally daily for 1 week; Ferrucci et al.; cited from earlier work
[4] = test system: MATH1-Prune1/TP53-/- cells; assay: Real-time cell proliferation assay (cell index, xCELLigence); type: cell-based, murine; conditions: impedance every 2 min over 24 h
Procedure: Primary murine TNBC cells from tumors generated by MMTV-Prune1/Wnt1 mice [Ferrucci et al., 2021] and Primary murine Medulloblastoma Group 3 cells from tumors generated MATH-Prune1/TP53-/- mice were obtained (2 months from tumor onset).
as §1

Caspase 3 = Caspase 3 activity assay; type: cell-based, murine; conditions: MATH1-Prune1/TP53-/- cells; Vincristine 0.3 nM and 0.03 nM; LEO-AA7.5(S)T 10 µM; 24 hours
Procedure: MATH1-Prune1/TP53-/- cells (3×10^4) were plated in 96-well plate and treated with different doses of Vincristine (i.e., 0.3 nM or 0.03 nM) alone or combined to 10 µM LEO-AA7.5(S)T. Vehicle- (0.01% DMSO) treated cells were used as negative controls. Staurosporine-treated cells (1 µM) were used as positive controls of the assays. The assay was performed by using Caspase-3 Activity Assay Kit (#5723, Cell Signaling), by following the manufacture's instruction. Briefly, after 24 hours from the treatment started, cell medium was removed and 30 ul of cell lysis buffer (PI-7018, Cell Signaling) were added. The plate was then incubated for 5 minutes on ice. Later, 25 ul of cell lysate were mixed with 200 ul substrate solution B (#11734S, Cell Signaling) in a black 96 well plate. Fluorescence was detected by using a multimode plate reader (Enspire, 2300, PerkinElmer). The positive control AMC (25 µl, #11735S, Cell Signaling) mixed with 200 ul 1X assay buffer A (#11736S, Cell Signaling) was used as positive control of fluorescence.

SMILES: COc1ccc(CNc2ncnc(N3CCCC(CO)C3)n2)cc1 (stereo not drawn) [compound (I)]
- dose of the chemotherapeutics diminished by synergistic action with Vincristine (D425-MED cells [1]): more than 100 fold

SMILES: COc1ccc(CNc2ccnc(N3CC[C@@H](O)C3)n2)cc1 [AA7.1, (R)-1-(4-((4-methoxybenzyl)amino)pyrimidin-2-yl)pyrrolidin-3-ol, reference compound]
- MB progression / tumour growth in cerebellum (bioluminescence) (MATH1-Prune1/ TP53-/-): inhibit MB progression; also recorded: impairment of tumour growth
- IC50 (D425-MED cells [2]): 130 ± 52.1 µM
- acute toxicity (hematological parameters, hepatotoxicity, nephrotoxicity) [3]: no immediate acute toxicity

SMILES: CC[C@]1(O)C[C@H]2CN(CCc3c([nH]c4ccccc34)[C@@](C(=O)OC)(c3cc4c(cc3OC)N(C=O)[C@H]3[C@@](O)(C(=O)OC)[C@H](OC(C)=O)[C@]5(CC)C=CCN6CC[C@]43[C@@H]65)C2)C1 [Vincristine]
- half maximal inhibitory concentration (IC50) for the inhibition of cell proliferation index [4]: 35 µM and 19,6 µM
- Caspase 3 activation, single agent (Caspase 3): activation of Caspase 3
